Results taken from US20200205399A1, “COMPOSITION FOR CRYOPRESERVATION, METHOD FOR PRODUCING CRYOPRESERVED MATERIAL, CELL PREPARATION, METHOD FOR PRODUCING CELL PREPARATION, AND KIT FOR CRYOPRESERVATION” (TWO CELLS Co., Ltd., priority 2017, published 2020).
Entries after “also recorded” stand apart in the source; their conditions may differ.

System: gMSC (registered trademark) 1
Assay: Experimental cryopreservation of gMSC 1 (scaffold-free, three-dimensional mass of mesenchymal stem cells); cell count after thawing
Assay type: cell-based, human
Details: conclusion from gMSC 1 experiments, constituent added to 10% DMSO + basal medium + albumin
Description: Primary cultured human synovium-derived MSCs were obtained through the following steps (1) to (4) or were obtained by shredding a tissue into fragments, immersing them in a culture solution (STK1) in a culture vessel, and allowing outgrowth of cells from the tissue fragments.
(1) Synovial tissue was taken from a human.
(2) The obtained synovial tissue was washed with PBS, then the tissue was added to 10 ml of a 0.4% collagenase solution and blended, and allowed to react at 37° C. for 1 to 4 hours.
(3) The resultant product was subjected to filtering and then centrifugation to recover the synovial tissue.
(4) Primary culture was carried out in a STK (registered trademark) 1 in accordance with the instructions from the manufacturer of the STK 1.
The primary cultured cells obtained in the above manner were subcultured and proliferated in a STK (registered trademark) 2 by repeated subculture, in accordance with the instructions from the manufacturer of the STK 2.
MSCs in a sub-confluent state (5th generation: P5) were washed once with phosphate buffered saline (PBS, calcium-free and magnesium-free, PBS(−), Cell Science & Technology Institute, Inc.), then detached with use of a cell detachment agent TrypLE Select CTS (Thermo Fisher Scientific Inc.), were collected, and suspended in a washing medium (DMEM, Sigma). Then, the cells were transferred to a tube for centrifugation, and subjected to centrifugation at 1500 rpm at room temperature for 5 minutes. The separated single cells were further suspended in a washing medium, and the number of cells was counted using trypan blue staining. The cells were inoculated onto a 6-well plate (SUMITOMO BAKELITE CO., LTD.) containing a STK (registered trademark) 2 at a density of 40×10^4 cells/cm^2, and cultured (high-density culture) in an incubator at 37° C. and 5% CO2 for 7 days. Culture media were replaced three days after the inoculation and five days after the inoculation. […]

Q: With `CCCCC/C=C\C/C=C\CCCCCCCC(=O)O` [linoleic acid, Linoleic Acid] as the compound, how does the “cryopreservative effect on scaffold-free, three-dimensional mass of mesenchymal stem cells” value (from here on “cryopreservative effect on scaffold-free”) read?
A: effective; also recorded: greater than the cryopreservative effect achieved by methyl-β-cyclodextrin

Q: With Tween 80 [reference compound] as the compound, how does the “cryopreservative effect on scaffold-free” value read?
A: not effective

Q: With Phosphatidic acid sodium salt [PA] as the compound, how does the “cryopreservative effect on scaffold-free” value read?
A: effective
